Laboratory results reported in patent US10442793B2, “Oxa spiro derivative, preparation method therefor, and applications thereof in medicines” (Jiangsu Hengrui Medicine Co., Ltd., priority 2015, dated 2019).
Like-named read-outs stand apart in the source and are kept apart here.

Assays:
Assay type in all cases: cell-based
[1] = molecular target: T1, MOR receptor (Homo sapiens, UniProt P35372); assay: Activation of the β-arrestin signaling pathway of MOR receptor (CHO-K1 OPRM1 β-Arrestin cells, DiscoveRX); conditions: for Emax: maximum effect of morphine is 100%
T1 construct: host or cells: CHO-K1
Procedure: The experiment objective is to determine the activity of the compounds of the present invention on activating the β-arrestin signaling pathway of MOR receptor.
The drug was prepared as a 20 mM stock solution that was later diluted with 100% DMSO to a 200×concentration gradient, and then diluted with a 20-fold AssayComplete™ Cell Plating 2 Reagent (93-0563R2B, DiscoveRX) medium. The cell culture plate inoculated on the first day was taken out, and 10 μl of the diluted drug or control (0.5% DMSO) was added to each well. The plate was gently shaken and placed in an incubator at 37° C., 5% CO2 for 90 minutes. Finally, 50 μL of a detection reagent (93-0001, DiscoveRX) were added to each well, and the plate was placed at room temperature for 60 minutes. The absorbance values were measured by the cold light model of a microplate reader (PE, Victor3). The EC50 values of the compounds were calculated by Graphpad Prism software according to each concentration of the compound and the corresponding signal value.

[2] = molecular target: T2, μ-opioid receptors (MOR) (Homo sapiens, UniProt P35372); assay: MOR activity test: HEK293/MOR/CRE luciferase reporter, agonizing MOR and affecting downstream cAMP levels; conditions: for Emax: HEK293, maximum effect of TRV-130 is 100%, read-out: Emax on agonizing MOR receptor and affecting cAMP levels
T2 construct: host or cells: HEK293
Excerpt: The compounds of the present invention can activate μ-opioid receptors (MOR). Activated MOR can regulate intracellular cAMP levels, and cAMP enters the nucleus and binds to the CRE region of the reporter gene luciferase, thereby initiating the expression of the reporter gene. Luciferase can react with its substrate to emit fluorescence, and the measured fluorescence signals reflect the agonistic activity of the compounds.
The activity of the test example compounds on agonizing MOR and affecting downstream cAMP levels was tested by the following method.
MOR/pcDNA3.1 (+) and CRE/pGL4.29 were transferred into HEK293 cells. G418 and hygromycin were added into the culture medium, and HEK293/MOR/CRE monoclonal cell lines were screened in a 96-well cell culture plate.
HEK293/MOR/CRE monoclonal cells were cultured in a DMEM/high glucose medium (10% FBS, 1 mg/ml G418, 200 μg/ml hygromycin, mixed uniformly), and passaged every 3 days. On the day of the experiment, a cell suspension was prepared with a fresh cell medium, added to a 96 well plate (BD, #356692) with 20,000 cells/well, and incubated in 5% CO2 at 37° C. On the second day, the compound was dissolved in pure DMSO at a concentration of 20 mM, then formulated with DMSO to a first concentration of 4 mM and diluted in 10 fold concentration gradient to 6 concentrations. Then, 90 μl of DMSO was added to blank and control wells. Then, formulated compound was prepared by adding 2.5 μl of the compound solutions formulated in DMSO at a gradient concentration to 97.5 μl of a fresh cell culture medium containing 5 μM foscolin. Then, 10 μl of the formulated compound was added to the cell culture plate to make the final concentration of the compound 10000, 1000, 100, 10, 1, 0.1, or 0.01 nM, and the plate was incubated at 37° C., in 5% CO2 for 5 hours. In a 96-well cell culture plate, 100 μl of luciferase assay solution (Promega, # E6110) was added to each well. The plate was placed in the dark at room temperature for 10-15 minutes, blowed and aspirated 10 times, and 100 μl were pipetted to a 96 well white plate. The chemiluminescence signal values were read in a microplate reader (PE, Victor3), and the read data was processed using software.
The activity of the compounds of the present invention on agonizing MOR and affecting downstream cAMP levels was determined by the above test, and the EC50 values are shown in Table 1.1.

[3] = molecular target: T3, hERG potassium channel (Homo sapiens, UniProt Q12809); assay: Blocking of hERG potassium current, automatic patch clamp on HEK293-hERG cells
T3 construct: expressed in transfected cells; host or cells: HEK293
Procedure: The blocking effect of the compounds of the present invention and the positive compound TRV-130 (Journal of Pharmacology and Experimental Therapeutics, Volume 344, Issue 3, Pages 708-717, 2013) on hERG potassium current was tested on a stable cell line transfected with hERG potassium channel using an automatic patch clamp.
HEK293-hERG stabilized cells were subcultured at a density of 1:4 in a MEM/EBSS medium (10% FBS, 400 μg/ml G418, 1% MEM nonessential amino acid solution (100×), 1% sodium pyruvate solution) for 48-72 hours, then the automatic patch clamp experiment was performed. The cells were digested with 0.25% trypsin on the day of the experiment, then the cells were collected by centrifugation and resuspended with extracellular fluid (140 mM NaCl, 4 mM KCl, 1 mM MgCl2, 2 mM CaCl2, 5 mM D-glucose monohydrate, 10 mM Hepes, pH 7.4, 298 mOsmol) into a cell suspension. The cell suspension was placed on the cell bank of the Patchliner instrument, and the cells were added to the chip (NPC-16) by the negative pressure controller of the Patchliner instrument, with negative pressure attracting individual cells to the small hole of the chip. After the whole cell model was formed, the instrument generated the hERG current according to the preset hERG current and voltage program, and then the instrument perfused the compound from low concentration to high concentration automatically. HEAK Patchmaster, HEAK EPC10 patch clamp amplifier (Nanion), Pathliner software, and a data analysis software provided by Pathcontrol HTsoftware were used to analyze the current of the compounds at different concentrations and the current of the blank control.
The blocking effect of the compounds of the present invention on hERG potassium current was determined by the above test, and the IC50 values are shown in Table 3.

[4] = molecular target: T4, DOR receptor (Homo sapiens, UniProt P41143); assay: DOR activity test: HEK293/DOR/CRE luciferase reporter, cAMP levels; conditions: for Emax: HEK293, maximum effect of morphine is 100%
T4 construct: expressed in transfected cells; host or cells: HEK293
Procedure: (§1) The experiment objective is to determine the activity of the compounds of the present invention on agonizing KOR receptor and DOR receptor, and affecting downstream cAMP levels.
(§2) 90 μl of HEK293/KOR/CRE or HEK293/DOR/CRE (CRE cDNA purchased from Promega, product number E8471, KOR cDNA and DOR cDNA were constructed by our company) cells were inoculated in a 96-well plate with a density of 1×10^4 cells/well. Then, the cells were incubated overnight at 37° C., in 5% CO2. The drug was prepared as a 20 mM stock solution that was later diluted with 100% DMSO to a 200×concentration gradient, and then diluted with a 20-fold DMEM/high glucose (SH30243.01B, Hyclone) medium. The cell culture plate inoculated on the first day was taken out, and […] of the diluted drug or control (0.5% DMSO) was added to each well. The plate was gently shaken and placed in a incubator at 37° C., 5% CO2 for 4 hours. Finally, 100 μl of a detection reagent ONE-Glo (E6120, Promega) was added to each well, and the plate was placed at room temperature for 5 minutes. The absorbance value was measured by the cold light model of a microplate reader (PE, Victor3). The EC50 value of the compound was calculated by Graphpad Prism software according to each concentration of the compound and the corresponding signal value. Emax is the maximum effect of the compound on cAMP level changes.
(§3) The activity of the compounds of the present invention on agonizing KOR receptor or DOR receptor and affecting downstream cAMP levels was determined by the above test, and the EC50 values are shown in Table 1.2.

[5] = molecular target: T5, KOR receptor (Homo sapiens, UniProt P41145); assay: KOR activity test: HEK293/KOR/CRE luciferase reporter, cAMP levels; conditions: for Emax: HEK293, maximum effect of morphine is 100%
T5 construct: expressed in transfected cells; host or cells: HEK293
Procedure: as §1, §2, §3

[6] = CHO-K1 OPRM1 β-Arrestin cells, 90 minutes, read-out: EC50 on the β-arrestin signaling pathway
[7] = HEK293/MOR/CRE cells, 5 h incubation, forskolin, read-out: EC50 on agonizing MOR receptor and affecting cAMP levels
[8] = HEK293-hERG cells, automatic patch clamp, read-out: IC50 on blocking hERG potassium current
[9] = HEK293/DOR/CRE cells, 4 h incubation, read-out: DOR EC50
[10] = HEK293/KOR/CRE cells, 4 h incubation, read-out: KOR EC50

T4 sequence (P41143 whole entry): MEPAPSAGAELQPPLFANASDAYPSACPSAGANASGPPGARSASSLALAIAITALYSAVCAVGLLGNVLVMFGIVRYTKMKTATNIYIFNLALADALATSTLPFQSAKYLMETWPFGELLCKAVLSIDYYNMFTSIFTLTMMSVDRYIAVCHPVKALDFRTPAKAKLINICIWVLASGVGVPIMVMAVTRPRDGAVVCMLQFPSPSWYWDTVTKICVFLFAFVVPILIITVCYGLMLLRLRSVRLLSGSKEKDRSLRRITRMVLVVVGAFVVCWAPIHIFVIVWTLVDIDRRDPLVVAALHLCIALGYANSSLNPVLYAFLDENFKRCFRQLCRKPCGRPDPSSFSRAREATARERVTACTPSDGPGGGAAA
T3 sequence (Q12809 whole entry): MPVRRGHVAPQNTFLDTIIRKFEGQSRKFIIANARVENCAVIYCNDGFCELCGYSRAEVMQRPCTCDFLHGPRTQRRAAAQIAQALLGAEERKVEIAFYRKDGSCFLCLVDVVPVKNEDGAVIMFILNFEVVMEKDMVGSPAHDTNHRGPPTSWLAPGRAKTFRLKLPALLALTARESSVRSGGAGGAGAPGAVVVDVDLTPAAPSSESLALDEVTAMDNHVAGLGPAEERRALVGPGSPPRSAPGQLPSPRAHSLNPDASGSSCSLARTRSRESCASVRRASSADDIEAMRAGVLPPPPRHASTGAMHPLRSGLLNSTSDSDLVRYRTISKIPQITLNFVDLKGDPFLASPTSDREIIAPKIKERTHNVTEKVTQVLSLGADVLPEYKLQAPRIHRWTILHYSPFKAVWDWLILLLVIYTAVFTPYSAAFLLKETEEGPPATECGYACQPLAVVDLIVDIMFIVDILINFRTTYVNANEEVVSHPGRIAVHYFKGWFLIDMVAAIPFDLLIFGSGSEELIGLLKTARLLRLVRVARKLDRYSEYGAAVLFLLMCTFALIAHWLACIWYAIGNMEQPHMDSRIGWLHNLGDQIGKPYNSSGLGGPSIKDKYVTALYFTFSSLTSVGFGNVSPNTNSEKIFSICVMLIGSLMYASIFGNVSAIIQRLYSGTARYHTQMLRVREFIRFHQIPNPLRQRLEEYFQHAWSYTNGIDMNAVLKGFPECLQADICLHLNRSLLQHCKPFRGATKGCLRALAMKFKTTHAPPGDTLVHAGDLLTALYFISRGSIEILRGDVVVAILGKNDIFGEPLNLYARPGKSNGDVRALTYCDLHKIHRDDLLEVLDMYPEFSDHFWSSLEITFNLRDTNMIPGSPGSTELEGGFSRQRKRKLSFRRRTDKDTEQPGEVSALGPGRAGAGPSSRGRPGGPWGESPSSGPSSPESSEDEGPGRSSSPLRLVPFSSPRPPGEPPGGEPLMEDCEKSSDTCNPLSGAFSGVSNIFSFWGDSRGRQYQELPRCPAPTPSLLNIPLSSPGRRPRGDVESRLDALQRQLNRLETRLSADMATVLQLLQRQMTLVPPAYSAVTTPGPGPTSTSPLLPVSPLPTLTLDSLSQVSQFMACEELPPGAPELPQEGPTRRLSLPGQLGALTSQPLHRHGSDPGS
T5 sequence (P41145 whole entry): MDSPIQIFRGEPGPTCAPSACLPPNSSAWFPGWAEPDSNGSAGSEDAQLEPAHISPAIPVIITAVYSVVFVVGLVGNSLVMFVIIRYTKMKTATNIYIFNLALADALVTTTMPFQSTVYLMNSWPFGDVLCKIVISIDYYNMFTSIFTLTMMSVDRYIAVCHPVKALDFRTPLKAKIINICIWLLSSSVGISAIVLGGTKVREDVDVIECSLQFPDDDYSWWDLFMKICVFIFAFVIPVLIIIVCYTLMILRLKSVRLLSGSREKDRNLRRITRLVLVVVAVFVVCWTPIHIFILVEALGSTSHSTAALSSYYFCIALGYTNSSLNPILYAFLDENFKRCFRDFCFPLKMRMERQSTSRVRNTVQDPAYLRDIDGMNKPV
T1 sequence (P35372 whole entry): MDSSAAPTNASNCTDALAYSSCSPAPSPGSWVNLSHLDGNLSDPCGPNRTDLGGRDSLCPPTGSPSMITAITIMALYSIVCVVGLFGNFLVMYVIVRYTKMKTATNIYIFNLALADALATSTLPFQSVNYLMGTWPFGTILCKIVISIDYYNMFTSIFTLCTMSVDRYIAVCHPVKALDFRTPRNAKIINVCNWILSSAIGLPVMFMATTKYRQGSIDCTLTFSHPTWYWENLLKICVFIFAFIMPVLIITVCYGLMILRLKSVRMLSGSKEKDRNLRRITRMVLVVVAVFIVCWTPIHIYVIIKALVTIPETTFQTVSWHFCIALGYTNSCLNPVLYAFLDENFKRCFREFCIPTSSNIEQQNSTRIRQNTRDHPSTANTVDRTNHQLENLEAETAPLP
T2 sequence (P35372 whole entry): as above

CCN1CC[C@H](NCC[C@@]2(c3ccccn3)CCOC3(CCCC3)C2)c2ccccc21 [Example 1, (S)-1-ethyl-N-(2-((R)-9-(pyridin-2-yl)-6-oxaspiro[4.5]decan-9-yl)ethyl)-1,2,3,4-tetrahydroquinolin-4-amine]
EC50 [1, 6]: 4 nM | Emax [1]: 12% | EC50 [2, 7]: 10 nM | Emax [2]: 102% | IC50 [3, 8]: 13000 nM

O=C1CC[C@H](NCC[C@@]2(c3ccccn3)CCOC3(CCCC3)C2)c2ccccc21 [Example 11, (S)-4-((2-((R)-9-(pyridin-2-yl)-6-oxaspiro[4.5]decan-9-yl)ethyl)amino)-3,4-dihydronaphthalen-1(2H)-one]
EC50 [1]: 305 nM | Emax [1]: 37% | EC50 [2]: 17 nM | Emax [2]: 112% | EC50 [4]: 1920 nM | Emax [4]: 80% | IC50 [3]: 4100 nM | EC50 [5]: 277 nM | Emax [5]: 98%

O[C@H]1CC[C@H](NCC[C@@]2(c3ccccn3)CCOC3(CCCC3)C2)c2ccccc21 [Example 12, (1S,4S)-4-((2-((R)-9-(pyridin-2-yl)-6-oxaspiro[4.5]decan-9-yl)ethyl)amino)-1,2,3,4-tetrahydronaphthalen-1-ol]
EC50 [2]: 2 nM | Emax [2]: 125% | IC50 [3]: 10200 nM

O[C@@H]1CC[C@H](NCC[C@@]2(c3ccccn3)CCOC3(CCCC3)C2)c2ccccc21 [Example 13, (1R,4S)-4-((2-((R)-9-(pyridin-2-yl)-6-oxaspiro[4.5]decan-9-yl)ethyl)amino)-1,2,3,4-tetrahydronaphthalen-1-ol]
EC50 [2]: 8 nM | Emax [2]: 130% | IC50 [3]: 13500 nM

CO[C@H]1CC[C@H](NCC[C@@]2(c3ccccn3)CCOC3(CCCC3)C2)c2ccccc21 [Example 14, (1S,4S)-4-methoxy-N-(2-((R)-9-(pyridin-2-yl)-6-oxaspiro[4.5]decan-9-yl)ethyl)-1,2,3,4-tetrahydronaphthalen-1-amine]
EC50 [1]: 26 nM | Emax [1]: 24% | EC50 [2]: 3 nM | Emax [2]: 109% | EC50 [4]: 1510 nM | Emax [4]: 91% | IC50 [3]: 8600 nM | EC50 [5]: 1470 nM | Emax [5]: 74%

c1ccc([C@]2(CCN[C@H]3CCc4ccccc43)CCOC3(CCCC3)C2)nc1 [Example 16, (S)-N-(2-((R)-9-(pyridin-2-yl)-6-oxaspiro[4.5]decan-9-yl)ethyl)-2,3-dihydro-1H-inden-1-amine]
EC50 [1]: 94 nM | Emax [1]: 9% | EC50 [2]: 9 nM | Emax [2]: 122% | IC50 [3]: 10000 nM

CCO[C@H]1CC[C@H](NCC[C@@]2(c3ccccn3)CCOC3(CCCC3)C2)c2ccccc21 [Example 19, (1S,4S)-4-ethoxy-N-(2-((R)-9-(pyridin-2-yl)-6-oxaspiro[4.5]decan-9-yl)ethyl)-1,2,3,4-tetrahydronaphthalen-1-amine]
EC50 [1]: 24 nM | Emax [1]: 13% | EC50 [2]: 2 nM | Emax [2]: 98% | EC50 [4]: 552 nM | Emax [4]: 108% | IC50 [3]: 5900 nM | EC50 [5]: 862 nM | Emax [5]: 96%

c1ccc([C@]2(CCN[C@H]3CC[C@H](OCC4CC4)c4ccccc43)CCOC3(CCCC3)C2)nc1 [Example 20, (1S,4S)-4-(cyclopropylmethoxy)-N-(2-((R)-9-(pyridin-2-yl)-6-oxaspiro[4.5]decan-9-yl)ethyl)-1,2,3,4-tetrahydronaphthalen-1-amine]
EC50 [1, 6]: 4 nM | Emax [1]: 9% | EC50 [4, 9]: 1520 nM | Emax [4]: 118% | EC50 [5, 10]: 710 nM | Emax [5]: 103%

FCCO[C@H]1CC[C@H](NCC[C@@]2(c3ccccn3)CCOC3(CCCC3)C2)c2ccccc21 [Example 21, (1S,4S)-4-(2-fluoroethoxy)-N-(2-((R)-9-(pyridin-2-yl)-6-oxaspiro[4.5]decan-9-yl)ethyl)-1,2,3,4-tetrahydronaphthalen-1-amine]
EC50 [2, 7]: 5 nM | Emax [2]: 110% | EC50 [4, 9]: 1490 nM | Emax [4]: 107% | IC50 [3, 8]: 4200 nM | EC50 [5, 10]: 1180 nM | Emax [5]: 100%

COC[C@H]1CC[C@H](NCC[C@@]2(c3ccccn3)CCOC3(CCCC3)C2)c2ccccc21 [Example 22, (1S,4S)-4-(methoxymethyl)-N-(2-((R)-9-(pyridin-2-yl)-6-oxaspiro[4.5]decan-9-yl)ethyl)-1,2,3,4-tetrahydronaphthalen-1-amine]
EC50 [1]: 41 nM | Emax [1]: 18% | EC50 [2]: 4 nM | Emax [2]: 103% | EC50 [4]: 2400 nM | Emax [4]: 102% | IC50 [3]: 3800 nM | EC50 [5]: 3090 nM | Emax [5]: 97%

c1ccc([C@]2(CCN[C@H]3CCC4(SCCS4)c4ccccc43)CCOC3(CCCC3)C2)nc1 [Example 24, (S)-N-(2-((R)-9-(pyridin-2-yl)-6-oxaspiro[4.5]decan-9-yl)ethyl)-3′,4′-dihydro-2′H-spiro[[1,3]dithiolane-2,1′-naphthalen]-4′-amine]
EC50 [1, 6]: 6 nM | Emax [1]: 30% | EC50 [2, 7]: 0.8 nM | Emax [2]: 102% | IC50 [3, 8]: 2500 nM
